PubChem BioAssay (NCI)
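Each compound was tested at five concentrations against cells in 96-well plates for 48 hours. TGI: concentration producing complete growth inhibition.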

Key:
Test in all cases: inhibition of tumour cell growth, NCI panel, 48 h
U251 CNS = system: U251 CNS
MALME-3M melanoma = system: MALME-3M melanoma
SW-620 colon = system: SW-620 colon
HOP-92 NSCLC = system: HOP-92 NSCLC
HS 578T breast = system: HS 578T breast
HL-60(TB) leukemia = system: HL-60(TB) leukemia
LOX IMVI melanoma = system: LOX IMVI melanoma
NCI-H226 lung = system: NCI-H226 lung
HOP-62 NSCLC = system: HOP-62 NSCLC
K-562 leukemia = system: K-562 leukemia

SMILES	TGI (U251 CNS) [µM]	TGI (MALME-3M melanoma) [µM]	TGI (SW-620 colon) [µM]	TGI (HOP-92 NSCLC) [µM]	TGI (HS 578T breast) [µM]	TGI (HL-60(TB) leukemia) [µM]	TGI (LOX IMVI melanoma) [µM]	TGI (NCI-H226 lung) [µM]	TGI (HOP-62 NSCLC) [µM]	TGI (K-562 leukemia) [µM]
CCCc1cc(-c2ccc(-c3cc(CCC)c(C=O)[nH]3)s2)[nH]c1C=O	> 100	> 100	> 100	> 100	> 100	> 48.8	32.1	> 100	> 100	> 100
N#CCN(Cc1ccccc1)[C@@H]1CCC[C@]1(O)C#Cc1ccc2c(c1)OCO2	33.9	34.3	58.6	27	37.2	45.1	30.9	33.6	30.8	60.4
CC1=C(C)C(=O)C(C2=C(C3=CC(=O)C(C)=C(C)C3=O)C(=O)c3ccccc3C2=O)=CC1=O	12.6	2.8	4.99	6.72	43.5	1.11	5.94	21	31.8	19.7
CC(C)(C)N=c1n(C(C)(C)C)oc(=O)n1-c1ccccc1	> 50	> 50	> 50	> 50	> 50	> 50	> 50	> 50	> 50	> 50
CC1(C)CC2(C)ON=C(c3ccccc3)N2c2ccccc2N1 (stereo not given)	41.1	55.3	> 100	61.4	42.6	56.4	33.8	42.8	37	52.3
Cc1nc(Nc2nc3ccccc3[nH]2)[nH]c(=O)c1CCO	> 100	> 71.5	> 100	> 100	> 100	> 100	> 94.7	> 96	> 100	> 100
COc1cccc(C(=O)N[C@@H]2[C@H](O)[C@@H](CO)O[C@H]2n2cnc3c(N)ncnc32)c1	> 100	> 100	> 100	> 100	> 100	> 100	> 100	> 100	> 100	> 100
NCCC1([N+](=O)[O-])CCNCC1	> 100	> 100	> 100	> 100	> 100	> 100	> 100	> 100	> 100	> 100
CCc1n[nH]c(=S)n1/N=C\c1ccc(-c2ccccc2[N+](=O)[O-])o1	> 100	> 100	> 100	> 100	> 100	> 100	> 100	54.1	> 100	> 100
O=C1C(NS(=O)(=O)c2ccccc2)=C(N(Cc2ccccc2)Cc2ccccc2)C(=O)c2ccccc21	> 100	0.584	> 100	> 100	> 100	66.1	> 100	> 100	> 100	> 100
COC(=O)C1(C)OC(C)=NC1(C(=O)OC)C(=O)OC (stereo not given)	> 100	> 100	> 100	> 100	> 100	14.4	> 100	> 100	> 100	> 100
C[N+]12CCCCC1C(CN1C(=O)c3ccccc3C1=O)CCC2 (stereo not given)	> 100	> 100	> 100	> 100	> 100	> 100	> 100	> 100	> 100	> 100
CCCCCCC(=O)OC[n+]1cccc(-c2c(COC(=O)NC(C)C)c(COC(=O)NC(C)C)c3n2CCC3)c1	> 100	98.5	> 100	66.4	> 100	> 48.9	69	> 100	> 100	> 100
Oc1ccc(Cn2c(-c3ccc(O)cc3)nc3ccccc32)cc1	> 100	> 100	> 100	> 100	> 100	> 31.6	> 100	> 100	> 100	> 100
O=C1Nc2ccc(Br)cc2/C1=C/C(=O)c1ccccc1	36.7	16.8	6.42	12.5	> 55.4	> 29.1	4.02	43.8	61.2	> 100
